Details: Fluid (supercritical or subcritical phases), Vibrating tube method

FC(F)=C(F)C(F)(F)F [hexafluoropropene]
Details	mass density [kg/m3]
343.26 K, 575.8 kPa	33.42
343.26 K, 590.5 kPa	34.28
343.26 K, 604.4 kPa	35.15
343.26 K, 617.9 kPa	35.97
343.26 K, 631.9 kPa	36.94
343.26 K, 646.4 kPa	37.76
343.26 K, 660.3 kPa	38.68
343.26 K, 674.2 kPa	39.57
343.26 K, 688.2 kPa	40.47
343.26 K, 701.9 kPa	41.42
343.26 K, 715.6 kPa	42.26
343.26 K, 729.6 kPa	43.14
343.26 K, 743.3 kPa	44.1
343.26 K, 756.9 kPa	44.99
343.26 K, 770.5 kPa	45.84
343.26 K, 783.7 kPa	46.78
343.26 K, 797.6 kPa	47.61
343.26 K, 810.7 kPa	48.57
343.26 K, 823.9 kPa	49.41
343.26 K, 850.2 kPa	51.23
343.26 K, 863 kPa	52.13
343.26 K, 876.3 kPa	53.04
343.26 K, 889.1 kPa	53.92
343.26 K, 902.2 kPa	54.71
343.26 K, 914.9 kPa	55.73
343.26 K, 928.7 kPa	56.6
343.26 K, 941.5 kPa	57.53
343.26 K, 954 kPa	58.46
343.26 K, 967.8 kPa	59.43
343.26 K, 981 kPa	60.4
343.26 K, 994.4 kPa	61.4
343.26 K, 1008.2 kPa	62.31
343.26 K, 1020.2 kPa	63.29
343.26 K, 1034.9 kPa	64.41
343.26 K, 1046.9 kPa	65.28
343.26 K, 1060.3 kPa	66.22
343.26 K, 1073.4 kPa	67.25
343.26 K, 1087.5 kPa	68.21
343.26 K, 1100.8 kPa	69.23
343.26 K, 1115.6 kPa	70.43
343.26 K, 1129.3 kPa	71.49
343.26 K, 1141.9 kPa	72.46
343.26 K, 1155.2 kPa	73.52
343.26 K, 1170.3 kPa	74.72
343.26 K, 1185.3 kPa	75.94
343.26 K, 1200.7 kPa	77.06
343.26 K, 1215.9 kPa	78.32
343.26 K, 1231.1 kPa	79.48
343.26 K, 1246.2 kPa	80.8
343.26 K, 1260.9 kPa	82.02
343.26 K, 1275.9 kPa	83.2
343.26 K, 1290.3 kPa	84.46
343.26 K, 1305.2 kPa	85.7
343.26 K, 1318.4 kPa	86.81
343.26 K, 1332.6 kPa	88.06
343.26 K, 1347.2 kPa	89.34
343.26 K, 1361.6 kPa	90.6
343.26 K, 1375.5 kPa	91.86
343.26 K, 1389.9 kPa	93.09
343.26 K, 1403.7 kPa	94.34
343.26 K, 1417.7 kPa	95.63
343.26 K, 1431.1 kPa	96.88
343.26 K, 1445 kPa	98.11
343.26 K, 1458.7 kPa	99.32
343.26 K, 1471.8 kPa	100.55
343.26 K, 1485.2 kPa	101.78
343.26 K, 1498.3 kPa	103.12
343.26 K, 1511.1 kPa	104.29
343.26 K, 1562.1 kPa	109.24
343.26 K, 1588.6 kPa	111.94
343.26 K, 1614.7 kPa	114.55
343.26 K, 1641.2 kPa	117.35
343.26 K, 1669.2 kPa	120.33
343.26 K, 1691 kPa	122.68
343.26 K, 1719.3 kPa	125.81
343.26 K, 1745.8 kPa	128.82
343.26 K, 1773.3 kPa	132.05
343.26 K, 1800.9 kPa	135.31
343.26 K, 1827.4 kPa	138.58
343.26 K, 1854.7 kPa	141.97
343.26 K, 1880.9 kPa	145.46
343.26 K, 1908.3 kPa	149.04
343.26 K, 1933.9 kPa	152.57
343.26 K, 1960.3 kPa	156.37
343.26 K, 1986.1 kPa	160.18
343.26 K, 2014.5 kPa	164.44
343.26 K, 2041.7 kPa	168.76
343.26 K, 2069.4 kPa	173.21
343.26 K, 2096.3 kPa	177.82
343.26 K, 2121.6 kPa	182.61
343.26 K, 2139 kPa	185.89
343.26 K, 2156.2 kPa	189.13
343.26 K, 2172.4 kPa	192.4
343.26 K, 2188.6 kPa	195.87
343.26 K, 2204.8 kPa	199.3
343.26 K, 2221.6 kPa	203.18
343.26 K, 2237.7 kPa	208.04
343.26 K, 2240 kPa	209.71
343.26 K, 2240.5 kPa	210.31
343.26 K, 2241 kPa	210.66
343.26 K, 2241.7 kPa	211.34
343.26 K, 2242.3 kPa	212.06
343.26 K, 2242.9 kPa	213.01
343.26 K, 2243.5 kPa	214.62
343.26 K, 2243.9 kPa	215.07
343.26 K, 2244.6 kPa	216.87
343.26 K, 2245.3 kPa	218.74
343.26 K, 2245.7 kPa	219.44
343.26 K, 2246.2 kPa	220.03
343.26 K, 2246.7 kPa	220.73
343.26 K, 2247.1 kPa	221.76
343.26 K, 2247.5 kPa	223.54
343.26 K, 2248 kPa	224.32
343.26 K, 2248.4 kPa	225.47
343.26 K, 2248.8 kPa	227.07
343.26 K, 2249.3 kPa	230.72
343.26 K, 2249.7 kPa	239.12
348.12 K, 3.1 kPa	0.11
348.12 K, 3.7 kPa	0.12
348.12 K, 4.8 kPa	0.23
348.12 K, 5.4 kPa	0.18
348.12 K, 6.4 kPa	0.27
348.12 K, 7.4 kPa	0.23
348.12 K, 8.3 kPa	0.31
348.12 K, 8.9 kPa	0.35
348.12 K, 9.9 kPa	0.43
348.12 K, 11.5 kPa	0.57
348.12 K, 15.2 kPa	0.72
348.12 K, 17 kPa	0.83
348.12 K, 18.8 kPa	0.9
348.12 K, 22.4 kPa	1.11
348.12 K, 24.2 kPa	1.25
348.12 K, 27.7 kPa	1.44
